Results published in publication PMC6628435, “Chemical Synthesis, Proper Folding, Nav Channel Selectivity Profile and Analgesic Properties of the Spider Peptide Phlotoxin 1” (Toxins, 2019).
Bridge positions count the residues as written; N and C are the ends. Peptide text beside a SMILES is read from it.

How the values were obtained:
hNav1.4 = molecular target: T1, hNav1.4 (Homo sapiens, UniProt P35499); assay: Automated patch-clamp dose-response on hNav1.4 expressed in CHO cells; format: cell-based; conditions: 4 to 13 cells per concentration, read-out: calculated IC50
T1 construct: expressed in transfected cells; host or cells: CHO cells
T1 sequence (P35499 whole entry): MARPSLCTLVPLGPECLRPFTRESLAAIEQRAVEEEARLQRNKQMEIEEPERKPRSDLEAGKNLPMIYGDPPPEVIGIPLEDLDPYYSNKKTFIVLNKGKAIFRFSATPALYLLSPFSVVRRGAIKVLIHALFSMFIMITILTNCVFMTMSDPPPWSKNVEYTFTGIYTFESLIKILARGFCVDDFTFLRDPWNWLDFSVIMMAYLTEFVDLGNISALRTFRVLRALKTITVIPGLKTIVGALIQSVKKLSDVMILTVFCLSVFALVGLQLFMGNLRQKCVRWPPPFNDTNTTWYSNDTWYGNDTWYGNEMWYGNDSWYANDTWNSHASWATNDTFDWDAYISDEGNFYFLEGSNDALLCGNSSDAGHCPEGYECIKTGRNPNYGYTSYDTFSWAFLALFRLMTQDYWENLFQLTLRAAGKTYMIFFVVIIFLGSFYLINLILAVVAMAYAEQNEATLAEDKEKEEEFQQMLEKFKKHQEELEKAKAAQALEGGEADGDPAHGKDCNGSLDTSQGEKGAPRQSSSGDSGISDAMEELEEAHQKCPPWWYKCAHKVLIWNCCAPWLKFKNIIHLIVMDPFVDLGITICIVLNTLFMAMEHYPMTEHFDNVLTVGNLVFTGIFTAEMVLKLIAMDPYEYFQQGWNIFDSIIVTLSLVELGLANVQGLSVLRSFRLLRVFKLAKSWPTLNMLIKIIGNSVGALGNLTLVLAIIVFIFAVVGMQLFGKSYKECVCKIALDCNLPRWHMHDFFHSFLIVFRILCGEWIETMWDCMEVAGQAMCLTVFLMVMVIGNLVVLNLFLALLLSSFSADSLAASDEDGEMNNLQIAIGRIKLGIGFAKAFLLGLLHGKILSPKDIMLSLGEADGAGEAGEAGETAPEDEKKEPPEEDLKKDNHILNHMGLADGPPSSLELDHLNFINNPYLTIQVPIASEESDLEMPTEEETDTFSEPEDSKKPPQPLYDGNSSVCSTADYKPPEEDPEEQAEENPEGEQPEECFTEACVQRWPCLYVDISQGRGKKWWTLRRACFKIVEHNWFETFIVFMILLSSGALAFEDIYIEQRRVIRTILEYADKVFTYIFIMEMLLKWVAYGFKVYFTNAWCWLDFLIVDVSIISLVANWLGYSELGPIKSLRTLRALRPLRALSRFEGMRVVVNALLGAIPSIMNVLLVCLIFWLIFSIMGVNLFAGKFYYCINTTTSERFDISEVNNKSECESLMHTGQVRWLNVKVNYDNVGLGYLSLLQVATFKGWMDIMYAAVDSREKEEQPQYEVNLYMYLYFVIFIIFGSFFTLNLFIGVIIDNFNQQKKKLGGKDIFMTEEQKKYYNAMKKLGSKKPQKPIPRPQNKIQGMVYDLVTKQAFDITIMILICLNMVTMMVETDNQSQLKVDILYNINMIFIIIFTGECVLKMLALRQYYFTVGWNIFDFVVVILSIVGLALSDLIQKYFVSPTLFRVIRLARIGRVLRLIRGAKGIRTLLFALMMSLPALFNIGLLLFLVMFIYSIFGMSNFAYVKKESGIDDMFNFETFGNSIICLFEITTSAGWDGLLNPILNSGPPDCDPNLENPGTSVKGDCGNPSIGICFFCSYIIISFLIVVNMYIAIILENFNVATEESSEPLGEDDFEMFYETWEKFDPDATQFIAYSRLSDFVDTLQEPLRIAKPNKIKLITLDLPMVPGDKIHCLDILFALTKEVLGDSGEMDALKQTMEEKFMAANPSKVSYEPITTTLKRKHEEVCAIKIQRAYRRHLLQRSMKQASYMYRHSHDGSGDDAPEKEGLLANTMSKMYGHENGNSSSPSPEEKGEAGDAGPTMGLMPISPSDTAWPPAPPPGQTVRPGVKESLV

human Nav1.7 channel = conditions: ref [47]; cited from earlier work
Nav1.5/β1 = assay: Two-electrode voltage-clamp on Xenopus laevis oocytes expressing Nav1.5/β1; format: cell-based; conditions: 1 µM; voltage of maximum sodium influx, holding −90 mV; oocytes TEVC; n ≥ 3
Excerpt: Using the two-electrode voltage-clamp technique on Xenopus laevis oocytes, the effect of PhlTx1 was also compared on eight different cloned vertebrate Nav channels co-expressed with the β1 subunit (Nav1.1-1.8/β1) and on the neuronal insect Nav channel, para, co-expressed with the tipE subunit (Figure 3 and Figure 4). […] Normalized current-voltage relationships (I-V curve) of Nav1.2/β1 and Nav1.3/β1 channels seemed to be shifted towards more negative potentials when PhlTx1 was applied, but shifts were not statistically significant […] (Figure 4). The activation phase of the other studied Nav channel subtypes was not affected. No obvious alteration in channel availability was observed, except a 5-mV negative shift for Nav1.3/β1, although that was also non-significant (p > 0.05).
Figure 4 1 µM of PhlTx1 was tested on Nav1.1/β1, Nav1.2/β1, Nav1.3/β1, Nav1.4/β1, Nav1.5/β1, Nav1.6/β1, Nav1.8/β1 and para/tipE (n ≥ 3). Left column: current traces were evoked by a 50-ms depolarization to the voltage of maximum sodium influx, depending on the Nav studied, from a holding potential of −90 mV. At 1 µM PhlTx1, all studied Nav channels, except Nav1.4/β1, were blocked for about 10% (no toxin: *). The current of Nav1.4/β1 was reduced for about 35 ± 5%. Middle column: normalized I-V curves reveal no significant shift of the activation voltage (p > 0.05). […]

With `CC(C)C[C@@H]1NC(=O)[C@@H](NC(=O)[C@H](C)N)CSSC[C@@H]2NC(=O)[C@@H]3CSSC[C@@H](C(=O)N[C@@H](CCCNC(=N)N)C(=O)N[C@@H](Cc4ccc(O)cc4)C(=O)N[C@@H](CCCCN)C(=O)N[C@@H](CC(C)C)C(=O)N[C@@H](Cc4ccccc4)C(=O)O)NC(=O)[C@H](Cc4c[nH]c5ccccc45)NC(=O)[C@@H]4CCCN4C(=O)[C@H](Cc4ccc(O)cc4)NC(=O)[C@H](CCCCN)NC(=O)[C@H](Cc4c[nH]c5ccccc45)NC(=O)[C@H](CCC(=O)O)NC(=O)[C@H](CSSC[C@H](NC(=O)[C@H](CO)NC(=O)[C@H](CC(=O)O)NC(=O)[C@H](Cc4c[nH]c5ccccc45)NC(=O)[C@H](CCC(N)=O)NC(=O)CNC1=O)C(=O)N[C@@H](CC(=O)O)C(=O)N1CCC[C@H]1C(=O)N[C@@H](CCCCN)C(=O)N[C@@H](C)C(=O)N[C@@H](CO)C(=O)N[C@@H](CCCCN)C(=O)N3)NC(=O)[C@H](C)NC(=O)[C@H](Cc1ccc(O)cc1)NC(=O)[C@H](CC(N)=O)NC(=O)[C@@H]1CCCN1C2=O` [PhlTx1, Phlotoxin-1] (H-ACLGQWDSCDPKASKCCPNYACEWKYPWCRYKLF-OH; disulfide 2-17, 9-22, 16-29; N-terminus and C-terminus assumed) as the compound, how does the IC50 (hNav1.4) read?
Its IC50 is greater than 3000 nM.

What about the IC50 (human Nav1.7 channel) of the same compound?
The IC50 was 250 nM.

And the “block of sodium current” value (Nav1.5/β1)?
The value was “about 10%”.
